These results are taken from article PMC5673977, “Transport Deficiency Is the Molecular Basis of Candida albicans Resistance to Antifungal Oligopeptides” (Frontiers in Microbiology, 2017).

Each structure is given as a SMILES string. ≈ marks a conversion by molar mass, not a printed value. Read-outs that look alike come from different tables or passages of the source. Where a SMILES comes first, the peptide text is derived from it.

What all share (type): cell-based, Candida albicans
Data set [1] concerns C. albicans SC5314. Put plainly: Initial peptide uptake rate. The note with it: SC 5314; cells grown in YNB-SG; 50 mM potassium phosphate buffer (pH 5.0 or 6.5) + 1% glucose, 30°C, 100 μM peptide, residual peptide by TNBS A420, slope 0- to 10-min. As to the method: (§1) Yeast cells grown exponentially in the YNB-SG medium were harvested by centrifugation (3000 ×g, 5 min), washed with 50 mM potassium phosphate buffer (pH 5.0 or 6.5), and suspended in the same buffer containing 1% glucose, to a final cell density corresponding to A660 ≅ 1.0. The cell suspension was incubated at 30°C. After 10 min, an oligopeptide solution was added, to give a final concentration of 100 μM. At that moment and at 5 min intervals thereafter, 2 mL samples of the cell suspension were withdrawn, immediately filtered through the Whatman GF/A filters and the filtrates were used to determine the residual peptide concentration. Then, the 1 mL portions of the filtrates were taken and combined with 1.25 mL aliquots of a solution containing 4% Na2B4O7 × 10 H2O and 0.8 mg mL^-1 of 2,4,6-trinitrobenzenesulfonate. The reaction was carried out at 37°C for 30 min. The A420 values were measured and the peptide concentration was read from the appropriate standard curve. Data were plotted as nanomoles of an oligopeptide, taken up by 1 mg (dry weight) of cells versus time. The initial uptake velocities were determined from the slopes of the linear part of the curves, in the 0- to 10-min region.

For data set [2], the system named is C. albicans opt1Δ. Put plainly: Initial peptide uptake rate. The note with it: 50 mM potassium phosphate buffer (pH 5.0 or 6.5) + 1% glucose, 30°C, 100 μM peptide, TNBS A420, slope 0- to 10-min. As to the method: as §1
The subject of data set [3] is C. albicans opt1–opt5Δ ptr2Δ ptr22Δ. Put plainly: Initial peptide uptake rate. The note with it: 50 mM potassium phosphate buffer (pH 5.0 or 6.5) + 1% glucose, 30°C, 100 μM peptide, TNBS A420, slope 0- to 10-min. As to the method: as §1
The subject of data set [4] is C. albicans opt1–opt5Δ. Put plainly: Initial peptide uptake rate. The note with it: 50 mM potassium phosphate buffer (pH 5.0 or 6.5) + 1% glucose, 30°C, 100 μM peptide, TNBS A420, slope 0- to 10-min. As to the method:
as §1

The subject of data set [5] is C. albicans opt2Δ opt3Δ. Put plainly: Initial peptide uptake rate. The following applies: 50 mM potassium phosphate buffer (pH 5.0 or 6.5) + 1% glucose, 30°C, 100 μM peptide, TNBS A420, slope 0- to 10-min. As to the method: as §1
Data set [6] concerns C. albicans opt4Δ. Put plainly: Initial peptide uptake rate. The following applies: 50 mM potassium phosphate buffer (pH 5.0 or 6.5) + 1% glucose, 30°C, 100 μM peptide, TNBS A420, slope 0- to 10-min. As to the method: as §1
The subject of data set [7] is C. albicans opt5Δ. Put plainly: Initial peptide uptake rate. The following applies: 50 mM potassium phosphate buffer (pH 5.0 or 6.5) + 1% glucose, 30°C, 100 μM peptide, TNBS A420, slope 0- to 10-min. As to the method: as §1
For data set [8], the system named is C. albicans ptr2Δ ptr22Δ. Put plainly: Initial peptide uptake rate. The following applies: 50 mM potassium phosphate buffer (pH 5.0 or 6.5) + 1% glucose, 30°C, 100 μM peptide, TNBS A420, slope 0- to 10-min. As to the method: as §1
For data set [9], the system named is C. albicans SC5314. The following applies: SC 5314. As to the method:
(§2) Strains were grown at 30°C in YPD medium (1% yeast extract, 2% peptone, and 2% glucose) and stored on YPD plates containing 2% agar. Susceptibility testing was performed in YPD and other three media: (a) RPMI-1640 w/o sodium bicarbonate, with L-glutamine + 2% glucose + 3.45% MOPS, pH adjusted to 7.0; (b) YNB-AS—Yeast Nitrogen Base w/o amino acids (contains ammonium sulfate 5 g L^-1) + 2% glucose; (c) YNB-SG—Yeast Nitrogen Base w/o amino acids and ammonium sulfate + 2% glucose + 0.2 g L^-1 sodium glutamate. In their solid version, used for the mutant generation and isolation, YNB-AS and YNB-SG contained 2% agar.
(§3) The in vitro growth inhibitory activity of antifungals was quantified by determination of minimal inhibitory concentration (MIC) values by the serial twofold dilution method, using the 96-well microtiter plates in three media: buffered RPMI-1640, YNB-AS, and YNB-SG. Conditions of the RPMI-1640-based assay were the same as outlined in the CLSI recommendations ([Clinical Laboratory Standards Institute, 2008]), except for the end-point readout that was done by spectrophotometric determination of cell density at 531 nm. Turbidity in individual wells was measured with a microplate reader (Victor^3; Perkin Elmer). MIC was defined as the lowest drug concentration that gave at least an 80% decrease in turbidity, relative to that of the drug-free growth control.
(§4) The 96-well microtiter plates were also used for determination of in vitro growth inhibitory activity in YPD and YNB-based media. Individual wells were inoculated with 5 × 10^3 cfu mL^-1 of C. albicans cells from the overnight culture in YPD medium. The inoculated plates were incubated 37°C for 24 h and then turbidity was measured with a microplate reader at 531 nm, as described above for the RPMI-1640-based assay.

In data set [10] the test system is C. albicans opt1Δ. The note with it: turbidity 531 nm, at least 80% decrease. As to the method:
as §2, §3, §4

The subject of data set [11] is C. albicans opt1–opt5Δ ptr2Δ ptr22Δ. The following applies: turbidity 531 nm, at least 80% decrease. As to the method: as §2, §3, §4
Data set [12] relates to C. albicans opt1–opt5Δ. The note with it: turbidity 531 nm, at least 80% decrease. As to the method:
as §2, §3, §4

Data set [13] relates to C. albicans opt2Δ opt3Δ. The following applies: turbidity 531 nm, at least 80% decrease. As to the method: as §2, §3, §4
Data set [14] concerns C. albicans opt4Δ. The following applies: turbidity 531 nm, at least 80% decrease. As to the method: as §2, §3, §4
For data set [15], the system named is C. albicans opt5Δ. The note with it: turbidity 531 nm, at least 80% decrease. As to the method:
as §2, §3, §4

Data set [16] deals with C. albicans ptr2Δ ptr22Δ. The note with it: turbidity 531 nm, at least 80% decrease. As to the method: as §2, §3, §4
Setting [17] is: RPMI-1640 medium, MOPS pH 7.0, CLSI conditions.

As for `N=C(N)NCCC[C@H](N)C(=O)N[C@@H](CCCCN)C(=O)N[C@@H](CCCCN)C(=O)N[C@@H](Cc1c[nH]c2ccccc12)C(=O)N[C@@H](Cc1ccccc1)C(=O)N[C@@H](Cc1c[nH]c2ccccc12)C(=O)O` [Peptide P6, Arg-Lys-Lys-Trp-Phe-Trp, reference compound] (H-RKKWFW-OH), the “Uptake rate ± SD” value with C. albicans SC5314 [1] is on record as 2.22 ± 0.11 nmol min^-1 (mg dry weight)^-1; in the data set with C. albicans opt1Δ [2] it was 1.85 ± 0.15 nmol min^-1 (mg dry weight)^-1; in data set [3], 0.12 ± 0.03 nmol min^-1 (mg dry weight)^-1; in the data set on C. albicans opt1–opt5Δ [4], 0.22 ± 0.07 nmol min^-1 (mg dry weight)^-1; in the data set with C. albicans opt2Δ opt3Δ [5], 0.40 ± 0.09 nmol min^-1 (mg dry weight)^-1; in the data set on C. albicans opt4Δ [6] it was 2.11 ± 0.16 nmol min^-1 (mg dry weight)^-1. Also, the “Uptake rate ± SD” value in the data set on C. albicans opt5Δ [7] was 1.99 ± 0.10 nmol min^-1 (mg dry weight)^-1; with C. albicans ptr2Δ ptr22Δ [8], 2.46 ± 0.19 nmol min^-1 (mg dry weight)^-1.
For `CC(C)[C@H](NC(=O)[C@H](Cc1c[nH]c2ccccc12)NC(=O)[C@H](Cc1ccccc1)NC(=O)[C@@H](NC(=O)[C@@H](NC(=O)[C@H](CCCCN)NC(=O)[C@@H](N)CCCCN)C(C)C)C(C)C)C(=O)N[C@@H](CCCCN)C(=O)N[C@@H](Cc1ccccc1)C(=O)N[C@@H](CCCCN)C(=O)O` [Peptide P10, Lys-Lys-Val-Val-Phe-Trp-Val-Lys-Phe-Lys] (H-KKVVFWVKFK-OH), the MIC (commonly the smallest concentration in the dilution series that meets the test's criterion for growth inhibition) in the data set on C. albicans SC5314 [9] (RPMI-1640 medium, MOPS pH 7.0, CLSI conditions, turbidity 531 nm, at least 80% decrease) stood at 64 mg/L (≈ 48.9 µM); in the data set with C. albicans SC5314 [9] (YNB + L-Gln (0.3 g L^-1) pH 5.0), 64 mg/L; with C. albicans SC5314 [9] (YNB + L-Gln (0.3 g L^-1) pH 7.0), 64 mg/L; in the data set on C. albicans SC5314 [9] (YNB + amino acid mixture (composition as in RPMI-1640)), 64 mg/L; against C. albicans SC5314 [9] (YNB-AS medium, 5 × 10^3 cfu mL^-1, 37°C, 24 h, turbidity 531 nm, at least 80% decrease) it was 64 mg/L (≈ 48.9 µM); in the data set on C. albicans SC5314 [9] (YNB-SG medium, 5 × 10^3 cfu mL^-1, 37°C, 24 h, turbidity 531 nm, at least 80% decrease), 64 mg/L (≈ 48.9 µM). The MIC in the data set with C. albicans SC5314 [9] (growth medium YNB-SG (Table 6)) is 64 mg/L (≈ 48.9 µM); against C. albicans opt1Δ [10] (setting [17]) it was 64 mg/L (≈ 48.9 µM); against C. albicans opt1Δ [10] (YNB-AS medium, 37°C, 24 h) it was 64 mg/L (≈ 48.9 µM); with C. albicans opt1Δ [10] (YNB-SG medium, 37°C, 24 h), 64 mg/L (≈ 48.9 µM); in [11] (setting [17]), 64 mg/L (≈ 48.9 µM); in data set [11] (YNB-AS medium, 37°C, 24 h) it was 64 mg/L (≈ 48.9 µM). Moreover, the minimum inhibitory concentration (MIC) in data set [11] (YNB-SG medium, 37°C, 24 h) was 64 mg/L (≈ 48.9 µM); against C. albicans opt1–opt5Δ [12] (setting [17]), 64 mg/L (≈ 48.9 µM); in the data set on C. albicans opt1–opt5Δ [12] (YNB-AS medium, 37°C, 24 h), 64 mg/L (≈ 48.9 µM); in the data set with C. albicans opt1–opt5Δ [12] (YNB-SG medium, 37°C, 24 h), 64 mg/L (≈ 48.9 µM); against C. albicans opt2Δ opt3Δ [13] (setting [17]) it was 64 mg/L (≈ 48.9 µM); with C. albicans opt2Δ opt3Δ [13] (YNB-AS medium, 37°C, 24 h), 64 mg/L (≈ 48.9 µM). Besides, the minimum inhibitory concentration (MIC) with C. albicans opt2Δ opt3Δ [13] (YNB-SG medium, 37°C, 24 h) amounted to 64 mg/L (≈ 48.9 µM); against C. albicans opt4Δ [14] (setting [17]), 64 mg/L (≈ 48.9 µM); against C. albicans opt4Δ [14] (YNB-AS medium, 37°C, 24 h), 64 mg/L (≈ 48.9 µM); with C. albicans opt4Δ [14] (YNB-SG medium, 37°C, 24 h), 64 mg/L (≈ 48.9 µM); against C. albicans opt5Δ [15] (setting [17]) it was 64 mg/L (≈ 48.9 µM); in the data set on C. albicans opt5Δ [15] (YNB-AS medium, 37°C, 24 h), 64 mg/L (≈ 48.9 µM). Also, the minimal inhibitory concentration (MIC) stood at 64 mg/L (≈ 48.9 µM) in the data set on C. albicans opt5Δ [15] (YNB-SG medium, 37°C, 24 h); 64 mg/L (≈ 48.9 µM) in the data set on C. albicans ptr2Δ ptr22Δ [16] (setting [17]); 64 mg/L (≈ 48.9 µM) in the data set with C. albicans ptr2Δ ptr22Δ [16] (YNB-AS medium, 37°C, 24 h); 64 mg/L (≈ 48.9 µM) in the data set on C. albicans ptr2Δ ptr22Δ [16] (YNB-SG medium, 37°C, 24 h). The “Uptake rate ± SD” value (in the data set on C. albicans SC5314 [1]; in the data set with C. albicans opt1Δ [2]; in data set [3]; with C. albicans opt1–opt5Δ [4]; in the data set on C. albicans opt2Δ opt3Δ [5]; in the data set on C. albicans opt4Δ [6]) was <0.1 nmol min^-1 (mg dry weight)^-1 each time. Besides, the “Uptake rate ± SD” value with C. albicans opt5Δ [7] and in the data set on C. albicans ptr2Δ ptr22Δ [8] was <0.1 nmol min^-1 (mg dry weight)^-1 throughout.
